Test results as given in ChEMBL document CHEMBL5154835, “Design, synthesis and biological evaluation of sulfonamides inhibitors of XPO1 displaying activity against multiple myeloma cells” (Eur J Med Chem, 2022).
Values belong to the molecule of their own block, whether it stands above or below them. Activity calls are given as the source filed them. The rule behind the calls is not given here.

Key:
[1] = system: MM1.S; experiment: Antiproliferative activity against human MM1.S cells assessed as inhibition of cell growth incubated for 4 hrs by CCK-8 assay; format: functional, cell-based
[2] = system: MM1.S; experiment: Induction of cell cycle arrest in human MM1.S cells assessed as accumulation at S phase at 1000 nM incubated for 48 hrs by propidium iodide staining based flow cytometric analysis (reference value: 21.8%); format: functional
[3] = Antiproliferative activity against human VAL cells assessed as inhibition of cell growth incubated for 4 hrs by CCK-8 assay; format: functional, cell-based
[4] = AUC (0 to t) in Sprague-Dawley rat at 1 mg/kg, iv measured upto 8 hrs by LC-MS/MS analysis; format: ADME, organism-based; design: time < 8 hrs, dose 1 mg/kg, route iv; details: in vivo
[5] = Metabolic stability in rat liver microsomes assessed as compound remaining preincubated for 5 mins measured upto 60 mins in presence of NADPH by LC/MS analysis; format: ADME, Microsome; details: time < 65 min, read-out: Stability
[6] = system: MM1.S; experiment: Induction of apoptosis in human MM1.S cells assessed as assessed as necrotic cells at 10000 nM measured after 48 hrs by annexin V-FITC/PI staining based flow cytometry analysis (Rvb=7.60%); format: functional
[7] = Clearance in Sprague-Dawley rat at 1 mg/kg, iv measured upto 8 hrs by LC-MS/MS analysis; format: ADME, organism-based; details: in vivo
[8] = system: MM1.S; experiment: Induction of apoptosis in human MM1.S cells assessed as increase in apoptosis rate at 10 uM measured after 48 hrs by annexin V-FITC/PI staining based flow cytometry analysis (Rvb=6.7%); format: functional
[9] = system: MM1.S; experiment: Induction of cell cycle arrest in human MM1.S cells assessed as p53-dependent accumulation of cells in G2 phase at 5000 nM incubated for 48 hrs by propidium iodide staining based flow cytometric analysis (reference value: 18.4%); format: functional
[10] = system: MM1.S; experiment: Induction of cell cycle arrest in human MM1.S cells assessed as p53-dependent accumulation of cells in G2 phaseat 10000 nM incubated for 48 hrs by propidium iodide staining based flow cytometric analysis (reference value: 18.4%); format: functional
[11] = system: MM1.S; experiment: Induction of apoptosis in human MM1.S cells assessed as assessed as early apoptotic cells at 1000 nM measured after 48 hrs by annexin V-FITC/PI staining based flow cytometry analysis (Rvb=4.60%); format: functional
[12] = system: MM1.S; experiment: Induction of apoptosis in human MM1.S cells assessed as assessed as necrotic cells at 1000 nM measured after 48 hrs by annexin V-FITC/PI staining based flow cytometry analysis (Rvb=7.60%); format: functional
[13] = AUC (0 to infinity) in Sprague-Dawley rat at 1 mg/kg, iv measured upto 8 hrs by LC-MS/MS analysis; format: ADME, organism-based; design: dose 1 mg/kg, time < 8 hrs, route iv; details: in vivo
[14] = system: MM1.S; experiment: Induction of cell cycle arrest in human MM1.S cells assessed as accumulation at G1 phase at 10000 nM incubated for 48 hrs by propidium iodide staining based flow cytometric analysis (reference value: 59.8%); format: functional
[15] = system: MM1.S; experiment: Induction of apoptosis in human MM1.S cells assessed as assessed as viable cells at 100 nM measured after 48 hrs by annexin V-FITC/PI staining based flow cytometry analysis (Rvb=85.74%); format: functional; details: read-out: Activity
[16] = system: MM1.S; experiment: Induction of apoptosis in human MM1.S cells assessed as assessed as late apoptotic cells at 100 nM measured after 48 hrs by annexin V-FITC/PI staining based flow cytometry analysis (Rvb=2.06%); format: functional
[17] = Antiproliferative activity against human Rael cells assessed as inhibition of cell growth incubated for 4 hrs by CCK-8 assay; format: functional, cell-based
[18] = Bioavailability in Sprague-Dawley rat at 10 mg/kg, IG measured upto 8 hrs by LC-MS/MS analysis; format: ADME, organism-based; details: in vivo, po
[19] = system: MM1.S; experiment: Induction of apoptosis in human MM1.S cells assessed as assessed as necrotic cells at 100 nM measured after 48 hrs by annexin V-FITC/PI staining based flow cytometry analysis (Rvb=7.60%); format: functional
[20] = Antiproliferative activity against human Mutu-1 cells assessed as inhibition of cell growth incubated for 4 hrs by CCK-8 assay; format: functional, cell-based; details: Mutu-1, 4 h
[21] = system: MM1.S; experiment: Induction of apoptosis in human MM1.S cells assessed as assessed as late apoptotic cells at 10000 nM measured after 48 hrs by annexin V-FITC/PI staining based flow cytometry analysis (Rvb=2.06%); format: functional
[22] = system: MM1.S; experiment: Induction of apoptosis in human MM1.S cells assessed as assessed as viable cells at 10000 nM measured after 48 hrs by annexin V-FITC/PI staining based flow cytometry analysis (Rvb=85.74%); format: functional; details: read-out: Activity
[23] = system: MM1.S; experiment: Induction of apoptosis in human MM1.S cells assessed as assessed as viable cells at 1000 nM measured after 48 hrs by annexin V-FITC/PI staining based flow cytometry analysis (Rvb=85.74%); format: functional; details: read-out: Activity
[24] = system: MM1.S; experiment: Induction of cell cycle arrest in human MM1.S cells assessed as accumulation at S phase at 5000 nM incubated for 48 hrs by propidium iodide staining based flow cytometric analysis (reference value: 21.8%); format: functional
[25] = system: MM1.S; experiment: Induction of apoptosis in human MM1.S cells assessed as assessed as late apoptotic cells at 1000 nM measured after 48 hrs by annexin V-FITC/PI staining based flow cytometry analysis (Rvb=2.06%); format: functional
[26] = AUC (0 to t) in Sprague-Dawley rat at 10 mg/kg, IG measured upto 8 hrs by LC-MS/MS analysis; format: ADME, organism-based; design: time < 8 hrs, dose 10 mg/kg, route ig; details: in vivo, po
[27] = system: MM1.S; experiment: Induction of cell cycle arrest in human MM1.S cells assessed as accumulation at G1 phase at 5000 nM incubated for 48 hrs by propidium iodide staining based flow cytometric analysis (reference value: 59.8%); format: functional
[28] = system: MM1.S; experiment: Induction of cell cycle arrest in human MM1.S cells assessed as p53-dependent accumulation of cells in G2 phase at 1000 nM incubated for 48 hrs by propidium iodide staining based flow cytometric analysis (reference value: 18.4%); format: functional
[29] = AUC (0 to infinity) in Sprague-Dawley rat at 10 mg/kg, IG measured upto 8 hrs by LC-MS/MS analysis; format: ADME, organism-based; design: dose 10 mg/kg, time < 8 hrs, route ig; details: in vivo, po
[30] = system: MM1.S; experiment: Induction of cell cycle arrest in human MM1.S cells assessed as accumulation at G1 phase at 100 nM incubated for 48 hrs by propidium iodide staining based flow cytometric analysis (reference value: 59.8%); format: functional
[31] = Half life in Sprague-Dawley rat at 1 mg/kg, iv measured upto 8 hrs by LC-MS/MS analysis; format: ADME, organism-based; details: in vivo
[32] = system: MM1.S; experiment: Induction of cell cycle arrest in human MM1.S cells assessed as accumulation at S phase at 10000 nM incubated for 48 hrs by propidium iodide staining based flow cytometric analysis (reference value: 21.8%); format: functional
[33] = Cmax in Sprague-Dawley rat at 1 mg/kg, iv measured upto 8 hrs by LC-MS/MS analysis; format: ADME, organism-based; design: dose 1 mg/kg, time < 8 hrs, route iv; details: in vivo
[34] = system: YT; experiment: Antiproliferative activity against human YT cells assessed as inhibition of cell growth incubated for 4 hrs by CCK-8 assay; format: functional, cell-based
[35] = Tmax in Sprague-Dawley rat at 1 mg/kg, iv measured upto 8 hrs by LC-MS/MS analysis; format: ADME, organism-based; details: in vivo
[36] = Tmax in Sprague-Dawley rat at 10 mg/kg, IG measured upto 8 hrs by LC-MS/MS analysis; format: ADME, organism-based; details: in vivo, po
[37] = system: MM1.S; experiment: Induction of cell cycle arrest in human MM1.S cells assessed as accumulation at S phase at 100 nM incubated for 48 hrs by propidium iodide staining based flow cytometric analysis (reference value: 21.8%); format: functional
[38] = Clearance in Sprague-Dawley rat at 10 mg/kg, IG measured upto 8 hrs by LC-MS/MS analysis; format: ADME, organism-based; details: in vivo, po
[39] = Half life in Sprague-Dawley rat at 10 mg/kg, IG measured upto 8 hrs by LC-MS/MS analysis; format: ADME, organism-based; details: in vivo, po
[40] = Cmax in Sprague-Dawley rat at 10 mg/kg, IG measured upto 8 hrs by LC-MS/MS analysis; format: ADME, organism-based; design: dose 10 mg/kg, time < 8 hrs, route ig; details: in vivo, po
[41] = system: MM1.S; experiment: Induction of apoptosis in human MM1.S cells assessed as assessed as early apoptotic cells at 10000 nM measured after 48 hrs by annexin V-FITC/PI staining based flow cytometry analysis (Rvb=4.60%); format: functional
[42] = system: MM1.S; experiment: Induction of cell cycle arrest in human MM1.S cells assessed as accumulation at G1 phase at 1000 nM incubated for 48 hrs by propidium iodide staining based flow cytometric analysis (reference value: 59.8%); format: functional
[43] = system: H9; experiment: Antiproliferative activity against human H9 cells assessed as inhibition of cell growth incubated for 4 hrs by CCK-8 assay; format: functional, cell-based; details: H9, 4 h
[44] = system: MM1.S; experiment: Induction of apoptosis in human MM1.S cells assessed as assessed as early apoptotic cells at 100 nM measured after 48 hrs by annexin V-FITC/PI staining based flow cytometry analysis (Rvb=4.60%); format: functional
[45] = Antiproliferative activity against human MINO cells assessed as inhibition of cell growth incubated for 4 hrs by CCK-8 assay; format: functional, cell-based
[46] = target: Exportin-1 (Homo sapiens) (UniProt O14980); experiment: Inhibition of XPO1 in human MM1.S cells at 0.1 to 10 uM incubated for 2 hrs by confocal microscopic analysis; format: cell-based; details: dose 0.1-10 µM
Exportin-1 (Homo sapiens), sequence (O14980 whole entry): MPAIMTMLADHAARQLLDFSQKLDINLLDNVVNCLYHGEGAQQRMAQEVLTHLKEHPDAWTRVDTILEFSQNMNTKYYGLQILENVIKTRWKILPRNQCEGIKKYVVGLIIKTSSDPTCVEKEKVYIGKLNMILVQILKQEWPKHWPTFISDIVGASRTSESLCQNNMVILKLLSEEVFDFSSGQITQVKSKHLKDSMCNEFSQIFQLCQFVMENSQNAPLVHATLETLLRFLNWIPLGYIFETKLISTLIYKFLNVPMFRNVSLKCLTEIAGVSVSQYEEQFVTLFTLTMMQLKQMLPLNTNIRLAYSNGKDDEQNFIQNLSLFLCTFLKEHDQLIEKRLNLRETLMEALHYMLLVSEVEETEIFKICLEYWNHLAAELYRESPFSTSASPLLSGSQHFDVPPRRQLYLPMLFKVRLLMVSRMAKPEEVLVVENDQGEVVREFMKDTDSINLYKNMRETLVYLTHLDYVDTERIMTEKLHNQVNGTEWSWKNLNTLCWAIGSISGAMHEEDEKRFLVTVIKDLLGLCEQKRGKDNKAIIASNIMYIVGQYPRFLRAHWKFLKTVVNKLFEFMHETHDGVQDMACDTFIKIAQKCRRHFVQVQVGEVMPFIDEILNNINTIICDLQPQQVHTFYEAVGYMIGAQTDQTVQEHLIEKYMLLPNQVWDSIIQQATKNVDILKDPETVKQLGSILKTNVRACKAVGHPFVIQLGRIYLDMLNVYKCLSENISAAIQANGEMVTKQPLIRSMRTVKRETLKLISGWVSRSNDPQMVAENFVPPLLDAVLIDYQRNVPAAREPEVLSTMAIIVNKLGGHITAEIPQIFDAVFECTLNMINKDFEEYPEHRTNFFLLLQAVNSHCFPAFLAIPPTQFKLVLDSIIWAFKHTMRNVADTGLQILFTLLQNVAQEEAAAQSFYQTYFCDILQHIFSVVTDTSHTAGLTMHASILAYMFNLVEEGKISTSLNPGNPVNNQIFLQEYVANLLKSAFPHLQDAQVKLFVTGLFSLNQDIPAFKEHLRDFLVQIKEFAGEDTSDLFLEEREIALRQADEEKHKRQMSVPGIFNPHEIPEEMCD

[47] = Antiproliferative activity against human JB-6 cells assessed as inhibition of cell growth incubated for 4 hrs by CCK-8 assay; format: functional, cell-based; details: JB6, 4 h
[48] = Metabolic stability in rat plasma assessed as compound remaining measured upto 120 mins by LC/MS analysis; format: ADME, cell-free; details: read-out: Stability
[49] = system: NAMALVA; experiment: Antiproliferative activity against human NAMALVA cells assessed as inhibition of cell growth incubated for 4 hrs by CCK-8 assay; format: functional, cell-based
[50] = system: MM1.S; experiment: Induction of cell cycle arrest in human MM1.S cells assessed as p53-dependent accumulation of cells in G2 phase at 100 nM incubated for 48 hrs by propidium iodide staining based flow cytometric analysis (reference value: 18.4%); format: functional

SMILES: CCNC(=O)/C(=C/n1cnc(-c2cc(C(F)(F)F)cc(C(F)(F)F)c2)n1)c1ccc(NS(C)(=O)=O)cc1
IC50 [1]: 2160 nM

SMILES: NC(=O)/C(=C/n1cc(F)c(-c2cc(C(F)(F)F)cc(C(F)(F)F)c2)n1)c1cncnc1
IC50 [1]: 713 nM

SMILES: COc1c(F)cc(/C(=C\n2cnc(-c3cc(C(F)(F)F)cc(C(F)(F)F)c3)n2)C(N)=O)cc1F
IC50 [1]: 3470 nM

SMILES: CS(=O)(=O)Nc1ccc(/C(=C\n2cnc(-c3cc(C(F)(F)F)cc(C(F)(F)F)c3)n2)C(N)=O)cc1
Activity [2]: 18.3%
IC50 [3]: 189 nM
AUC(0-t) at 8 h [4]: 1670 ng·h/mL
remaining at 1 h [5]: 85%
Activity [6]: 7.34%
clearance [7]: 9.42 mL/min/kg
Activity [8]: 64.7%
Activity [9]: 37.3%
Activity [10]: 36.4%
Activity [11]: 26.42%
Activity [12]: 6.61%
AUC(0-inf) [13]: 1790 ng·h/mL
Activity [14]: 52.1%
viability at 0.1 µM [15]: 75.4%
Activity [16]: 6.35%
IC50 [17]: 202 nM
bioavailability [18]: 34.6%
Activity [19]: 6.94%
IC50 [20]: 158 nM
Activity [21]: 37.33%
viability at 10 µM [22]: 28%
viability at 1 µM [23]: 46.5%
Activity [24]: 10.2%
Activity [25]: 20.49%
AUC(0-t) at 8 h [26]: 5770 ng·h/mL
Activity [27]: 52.6%
Activity [28]: 33.4%
AUC(0-inf) [29]: 6390 ng·h/mL
Activity [30]: 63.4%
half-life [31]: 2.32 h
Activity [32]: 11.5%
Cmax [33]: 1240 ng/mL
IC50 [34]: 75.4 nM
Tmax [35]: 4.8 min
Tmax [36]: 2.17 h
Activity [37]: 15.4%
IC50 [1]: 24 nM
CL/F [38]: 27.3 mL/min/kg
half-life [39]: 2.12 h
Cmax [40]: 1390 ng/mL
Activity [41]: 27.36%
Activity [42]: 48.3%
IC50 [43]: 101 nM
Activity [44]: 11.27%
IC50 [45]: 80.2 nM
inhibition [46]: Active
IC50 [47]: 154 nM
remaining at 2 h [48]: 80%
IC50 [49]: 77.7 nM
Activity [50]: 21.3%

Continued, values first:

IC50 [1]: 2240 nM
SMILES: NC(=O)/C(=C/n1cc(Cl)c(-c2cc(C(F)(F)F)cc(C(F)(F)F)c2)n1)c1cncnc1

IC50 [1]: 2430 nM
SMILES: NC(=O)/C(=C/n1cnc(-c2cc(C(F)(F)F)cc(C(F)(F)F)c2)n1)c1cc(F)c(F)c(F)c1
